Experimental data: patent publication US20230201217A1 (priority 2019, published 2023)
Where “and” joins values, the source holds several entries; their conditions need not be identical. Equal values may be shown once.

Experiments:
rats = test: Single-dose oral toxicity; format: in vivo, rat
Procedure: (§1) Single doses up to 300-400 mg/kg and 800 mg/kg appeared to be generally well tolerated in monkeys and rats, respectively (one monkey treated with 400 mg/kg died in the 2-week GLP study on Day 1 of dosing). […] In mice, mortality was consistently seen following single doses 150 mg/kg. Preliminary 5-day repeat-dose range-finding studies were conducted in mice, rats and monkeys. The definitive 14-day studies in mouse and monkey yielded generally similar results to those observed in the 5-day studies.

monkeys = test: Single-dose oral toxicity; format: in vivo, monkey
Procedure: as §1

[1] = test system: rats trained to self-administer cocaine; test: Rat cocaine self-administration, oral 18-MC HCl; conditions: for inhibition of cocaine self-administration: 1 hour post-dose
Procedure: The relationship between in vivo efficacy and plasma drug exposure was investigated in rats trained to self-administer cocaine. […] Blood samples were collected immediately after the one hour session in the operant chamber from the arterial catheter. […] Significant differences from vehicle-treated animals were either p<0.01 (indicated as **) or p<0.05 (indicated as *).
Significant difference from vehicle-treated group (0 mg/kg on X axis) was p<0.01 (indicated as **) by one-way ANOVA.
Significant difference from baseline responding was p<0.01 (as indicated by **). […] Blood samples were collected from animals immediately after their cocaine self-administration at approximately 2 hours post dose in the first day of dosing (Day 0), and the last day of dosing (Day 4).

male CD-1 mice = test: Cardiovascular radiotelemetry in conscious CD-1 mice; format: in vivo, mouse
Description: The purpose of this study was to explore the physiological changes associated with mortality. Animals were implanted with a radiotelemetry transmitter in the peritoneal cavity with the catheter inserted in the femoral artery and the sensor tip positioned in the abdominal aorta. […] Within one hour of dosing, average heart rate (FIG. 14) decreased about 50%, and significant decreases in systolic (FIG. 15) and diastolic blood pressure (FIG. 16). In addition, body temperature generally dropped at each collection time point, reaching a maximum difference from baseline at 120 minutes post-dose (average change up to 6.5° C.). Following administration of the 200 mg/kg dose, body temperature continued to drop (up to 10.5° C.) until all mice died (˜12 hours post-dose). These changes in body temperature were considered test article-related and correlated to the observed changes in heart rate. Terminally, there was a further decrease in all of the parameters, with the rectal temperatures falling to as low as 22° C. before the mice died. Observed effects on behavior and activity included tremors, twitches, abnormal gait, lethargy, decreased motor activity, increased response to touch and startle, seizures, gasping and slow respirations, exophthalmia, and stupor.

male cynomolgus monkeys = test: Cardiovascular and respiratory radiotelemetry in conscious cynomolgus monkeys; format: in vivo, cynomolgus monkey
Procedure: Clinical observations were performed at approximately 4 and 24 hours post-dosing.

[2] = Stability of oral dosing solution; format: physicochemical
Description: Most preferably, an oral dose of the composition is used. An oral dosing formulation was validated by a GLP study.

dogs = test: Single-dose oral toxicity; format: in vivo, dog
[3] = test system: rats trained to self-administer cocaine; conditions: 10-40 mg/kg i.p., cited from earlier work
plasma protein = test: Plasma protein binding; format: in vitro ADME, Human
Description: There is no information on the protein binding of any of the metabolites.

hERG potassium channel = biological target: T1, hERG potassium channel (Homo sapiens, UniProt Q12809); test: In vitro hERG channel inhibition assay, stably transfected CHO cells, voltage clamp; format: cell-based; conditions: average of 3 recordings; read-out: IC50, hERG current inhibition
T1 construct: expressed in transfected cells; host or cells: CHO, stably transfected
T1 sequence (Q12809 whole entry): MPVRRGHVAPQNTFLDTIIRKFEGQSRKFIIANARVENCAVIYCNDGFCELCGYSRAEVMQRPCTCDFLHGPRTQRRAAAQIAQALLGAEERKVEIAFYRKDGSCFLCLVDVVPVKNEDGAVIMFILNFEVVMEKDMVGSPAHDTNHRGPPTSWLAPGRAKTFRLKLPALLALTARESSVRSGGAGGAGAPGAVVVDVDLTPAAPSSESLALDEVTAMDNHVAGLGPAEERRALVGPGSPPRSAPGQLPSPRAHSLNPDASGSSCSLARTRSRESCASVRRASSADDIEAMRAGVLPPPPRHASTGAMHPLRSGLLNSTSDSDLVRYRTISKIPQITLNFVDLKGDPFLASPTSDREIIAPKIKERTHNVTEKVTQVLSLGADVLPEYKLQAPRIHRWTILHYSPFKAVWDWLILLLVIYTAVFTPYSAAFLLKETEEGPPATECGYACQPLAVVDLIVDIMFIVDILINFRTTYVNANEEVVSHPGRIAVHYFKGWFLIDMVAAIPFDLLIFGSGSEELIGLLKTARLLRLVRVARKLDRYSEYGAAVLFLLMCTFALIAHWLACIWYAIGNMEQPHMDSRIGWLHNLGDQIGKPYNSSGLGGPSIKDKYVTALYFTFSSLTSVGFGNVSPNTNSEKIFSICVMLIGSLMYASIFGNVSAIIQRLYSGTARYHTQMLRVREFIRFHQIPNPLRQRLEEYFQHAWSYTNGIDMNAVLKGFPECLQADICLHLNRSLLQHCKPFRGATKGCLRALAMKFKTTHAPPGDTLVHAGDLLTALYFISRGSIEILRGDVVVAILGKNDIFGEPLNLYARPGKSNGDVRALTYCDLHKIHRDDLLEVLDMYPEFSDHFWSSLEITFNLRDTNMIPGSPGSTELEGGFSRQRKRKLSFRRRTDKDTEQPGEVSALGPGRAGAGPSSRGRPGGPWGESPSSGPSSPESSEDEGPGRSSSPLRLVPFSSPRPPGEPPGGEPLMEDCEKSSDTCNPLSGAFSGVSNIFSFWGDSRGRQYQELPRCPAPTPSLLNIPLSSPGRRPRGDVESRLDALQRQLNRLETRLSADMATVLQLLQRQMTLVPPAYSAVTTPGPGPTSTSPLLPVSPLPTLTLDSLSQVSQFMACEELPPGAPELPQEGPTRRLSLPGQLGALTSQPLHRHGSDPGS
Procedure: The potential for 18-MC to inhibit the hERG potassium channel was evaluated in a stably transfected Chinese Hamster Ovary (CHO) cell line expressing hERG mRNA (FIG. 12). […] Cells were voltage clamped at a holding potential of −80 mV. The hERG current was then activated by a depolarizing step ([…] for 300 ms) and repeated every 12 s. 18-MC was prepared from 10 mM methanol stock solutions. The hERG current inhibition was calculated from the average of 3 separate recordings.

[4] = Plasma 18-MC concentration in rats, 5-day dosing self-administration study
Procedure: Blood samples were collected from animals immediately after their cocaine self-administration at approximately 2 hours post dose in the first day of dosing (Day 0), and the last day of dosing (Day 4).

CYP2A6 = CYP2A6 (Homo sapiens, UniProt P11509); conditions: recombinant enzyme
CYP2A6, sequence (P11509 whole entry): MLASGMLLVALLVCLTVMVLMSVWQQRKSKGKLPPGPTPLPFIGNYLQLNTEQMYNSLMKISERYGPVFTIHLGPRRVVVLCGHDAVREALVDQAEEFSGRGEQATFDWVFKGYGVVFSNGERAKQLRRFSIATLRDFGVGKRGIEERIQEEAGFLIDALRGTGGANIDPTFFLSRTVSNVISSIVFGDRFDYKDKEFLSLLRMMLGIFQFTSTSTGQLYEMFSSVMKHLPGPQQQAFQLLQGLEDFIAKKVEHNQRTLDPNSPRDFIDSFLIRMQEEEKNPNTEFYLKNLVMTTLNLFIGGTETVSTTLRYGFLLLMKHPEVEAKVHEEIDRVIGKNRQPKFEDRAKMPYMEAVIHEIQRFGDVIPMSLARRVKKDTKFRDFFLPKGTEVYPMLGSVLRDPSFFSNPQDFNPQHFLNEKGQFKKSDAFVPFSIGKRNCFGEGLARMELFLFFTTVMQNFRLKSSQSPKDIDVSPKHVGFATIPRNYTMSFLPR
Procedure: (§2) Control incubations were performed for each assay with appropriate positive inhibitory controls.

[5] = test system: 64 neurotransmitter-related binding sites; test: In vitro radio-ligand receptor and enzyme assays (panel); conditions: 100 nM
Procedure: The binding potential of 18-MC with 64 neurotransmitter-related binding sites was evaluated (TABLE 2).

CYP2C8 = CYP2C8 (Homo sapiens, UniProt P10632); conditions: recombinant enzyme
CYP2C8, sequence (P10632 whole entry): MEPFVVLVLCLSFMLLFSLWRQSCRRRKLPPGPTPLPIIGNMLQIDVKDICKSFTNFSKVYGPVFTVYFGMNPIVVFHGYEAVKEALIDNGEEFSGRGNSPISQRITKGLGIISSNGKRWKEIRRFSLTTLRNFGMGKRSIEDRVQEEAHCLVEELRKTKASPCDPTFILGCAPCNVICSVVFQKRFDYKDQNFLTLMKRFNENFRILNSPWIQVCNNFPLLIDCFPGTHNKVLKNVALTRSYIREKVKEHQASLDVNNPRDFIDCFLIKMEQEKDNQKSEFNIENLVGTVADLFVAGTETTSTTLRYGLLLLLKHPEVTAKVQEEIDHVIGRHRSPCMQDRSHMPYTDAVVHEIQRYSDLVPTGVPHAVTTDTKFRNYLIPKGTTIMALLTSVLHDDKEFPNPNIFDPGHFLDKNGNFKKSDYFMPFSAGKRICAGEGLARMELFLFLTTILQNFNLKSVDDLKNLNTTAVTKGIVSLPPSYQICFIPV
Procedure: as §2

[6] = Pre-clinical pharmacokinetics, all species tested; format: in vivo
Procedure: In all the species tested in pre-clinical studies, 18-MC is rapidly absorbed following oral administration with Tmax occurring in less than 0.5 hours following oral administration. After oral administration, the elimination of 18-MC is multi-compartmental. In plasma, 18-MC is highly protein bound (92% to 98%). 18-MC is also rapidly and extensively metabolized, presumably by first pass metabolism. At least […] different metabolites have been detected both in vitro and in vivo, further described below (M1-M9, P1-P3). The major metabolites (those with exposure greater than 10% of the total drug related material) appear to change with the dose and duration of dosing. Major metabolites include M2, M4, M5, M8, M9 and P2 depending on the animal species tested, and the dose and duration of dosing.
18-MC is rapidly absorbed and distributed into the brain and fat tissues in rats dosed with 40 mg/kg p.o. or i.p. The estimated volume of distribution is 8 L/kg. 18-MC levels in fat were 4.2 μM and 2.5 μM at 2 hours and 24 hours, respectively. […] On oral administration, it appears that the major metabolites are either M4 or M5, depending on the animal species tested. M4 and M5 are the primary circulating drug species because they are present at proportions greater than 18-MC. […] In the animal species tested its half-life is less than 2 hours at lower doses. […]

[7] = Dose Day 0, post dose (~2 h), 600 mg/kg/day

In the case of COCCC1CC2CN3CCc4c([nH]c5ccccc45)C(C(=O)OC)(C2)C13.Cl (stereo not shown) [18-MC HCl, 18-Methoxycoronaridine hydrochloride], the “single dose generally well tolerated” value (rats) is reported as no more than 800 mg/kg, the “single dose generally well tolerated” value (monkeys) is reported as 300 to 400 mg/kg and the “inhibition of cocaine self-administration” value ([1]; 120 mg/kg p.o.) is reported as 50%. For the same compound, the “inhibition of cocaine self-administration on repeated dosing” value ([1]; 600 mg/kg/day, 5 consecutive days) was “did not result in greater inhibition”, the “inhibition of cocaine self-administration” value ([1]; 800 mg/kg p.o.) was 82% and the “average change in body temperature from baseline” value (male CD-1 mice; 100 mg/kg, 120 minutes post-dose) was “up to 6.5 °C”. For the same compound, the mortality (male CD-1 mice; after 100 mg/kg oral dose) was “Two of the 6 animals died”, the mortality (male CD-1 mice; after the 200 mg/kg dose (8 hours after 100 mg/kg)) was “all of the other animals died” and the “rectal temperature, terminal” value (male CD-1 mice; before the mice died) was no less than 22 °C. The “drop in body temperature” value (male CD-1 mice; following the 200 mg/kg dose) was “up to 10.5 °C”, the “decrease in average heart rate” value (male CD-1 mice; within one hour of dosing) was “about 50%” and the “cardiovascular parameters, body temperature, respiratory parameters” value (male cynomolgus monkeys; 30, 90, or 270 mg/kg single dose) was “did not affect”. The “NOEL on the cardiovascular and respiratory systems” value (male cynomolgus monkeys; single dose, highest dose tested) was 270 mg/kg, the “stability of dosing solution” value ([2]; after 3 freeze-thaw (20° C.) cycles) was “met the required stability criteria” and the “homogeneity, concentration acceptability, solubility and stability of dosing formulation” value ([2]; after 10 days of refrigerated storage) was “met the applicable ICH criteria”. The “dose at which emesis was seen” value (dogs) was 100 mg/kg, the responding for cocaine ([3]; 15 minutes prior to session) was “significantly decreased” and the responding for water [3] was “no effect”.
For COCC[C@H]1CC2CN3CCc4c([nH]c5ccccc45)[C@](C(=O)OC)(C2)[C@H]13 [18-MC, 18-methoxycoronaridine], the “% Bound Mean ± SD” value (plasma protein; 200 ng/mL) was 96.8 ± 0.321%, the “% Bound Mean ± SD” value (plasma protein; 600 ng/mL) was 97.6 ± 0.153% and the “% Bound Mean ± SD” value (plasma protein; 5,000 ng/mL) was 95.2 ± 0.473%. The “Average % Bound Mean ± SD” value (plasma protein; average of 3 concentrations) was 96.5 ± 1.22%, the IC50 (hERG potassium channel) was 1460 nM and 1600 nM and the “Plasma 18-MC concentration, Average” value [4, 7] was 11,442 ng/mL. The “Plasma 18-MC concentration, individual animals” value [4, 7] was 3,450 ng/mL and 12,600 ng/mL and 11,300 ng/mL and 13,900 ng/mL and 14,200 ng/mL and 13,200 ng/mL, the “Plasma 18-MC concentration, Average” value ([4]; Dose Day 4, post dose) was 7,524 ng/mL and the “Plasma 18-MC concentration, individual animals” value ([4]; Dose Day 4, post dose) was 9,030 ng/mL and 3,760 ng/mL and 8,040 ng/mL and 10,500 ng/mL and 6,290 ng/mL. For the same compound, the “Plasma 18-MC concentration, Average” value ([4]; Dose Day 4, pre dose) was 2,998 ng/mL, the “Plasma 18-MC concentration, individual animals” value ([4]; Dose Day 4, pre dose) was 3,840 ng/mL and 1,680 ng/mL and 3,020 ng/mL and 2,720 ng/mL and 3,730 ng/mL and the IC50 (CYP2A6) was greater than 100 µM. The binding activity [5] was “no binding activity”, the IC50 (CYP2C8) was 19 µM and the half-life ([6]; animal species tested, lower doses, oral) was “less than 2 hours”. For the same compound, the Tmax ([6]; oral administration, all the species tested) was “less than 0.5 hours”.
